Measured values reported in paper PMC12747935 (2025).
Each block holds one molecule with its values, some of them ahead of it.

Legend:
Assay in all cases: ribozyme self-cleavage, PAGE with SYBR Gold
[1] = tested on: Motif_9307 allosteric ribozyme (RNA, riboswitch) GGGCGUAGCCUGAUGAGACUUAUAAUUUUUGAUAUAGAAAUAAAUUACAGUAGUUACACGCAAUAACCGUUGGUCCAAAUAGUAUCCUGUCCUGAGCCGACCGAGUCGAAACGUGGUGAAAGCCACGUCGCUGCGCCGCAGCUGUGGAA; settings: 100 mM KCl, 20 mM MgCl2; 30 mM HEPES pH 7.5, 25°C, 30 min; no change in cleavage
[2] = tested on: ThiC-TPP allosteric ribozyme (bridge of four base pairs) (RNA, riboswitch) GGGCGUAGCCUGAUGAGACUCGGGGUGCCCUUCUGCGUGAAGGCUGAGAAAUACCCGUAUCACCUGAUCUGGAUAAUGCCAGCGUAGGGAAGUCGAAACGUGGUGAAAGCCACGUCGCUGCGCCGCAGCUGUGGAA; settings: 100 mM KCl, 20 mM MgCl2, 30 mM HEPES pH 7.5, 25°C, 30 min
[3] = tested on: ThiC-TPP allosteric ribozyme (bridge of three base pairs) (RNA, riboswitch) GGGCGUAGCCUGAUGAGCUCGGGGUGCCCUUCUGCGUGAAGGCUGAGAAAUACCCGUAUCACCUGAUCUGGAUAAUGCCAGCGUAGGGAAGCGAAACGUGGUGAAAGCCACGUCGCUGCGCCGCAGCUGUGGAA; settings: 100 mM KCl, 20 mM MgCl2; 30 mM HEPES pH 7.5, 25°C, 30 min; apparent; text gives only 1 to 3 μM for both bridges
[4] = tested on: NCU-TPP allosteric ribozyme (bridge of three base pairs) (RNA, riboswitch) GGGCGUAGCCUGAUGAGACUACGGGCGCUGUCGAAAGACAGCUGAGAUUGUACCGUGAUUACUCGAUCAAGUUAAUGCUUGCGUGAGAAACGUCGAAACGUGGUGAAAGCCACGUCGCUGCGCCGCAGCUGUGGAA; settings: 100 mM KCl, 20 mM MgCl2, 30 mM HEPES pH 7.5, 25°C, 30 min, half-maximal cleavage change
[5] = tested on: THEO allosteric ribozyme (RNA, aptamer) GGGCGUAGCCUGAUGAGCCCUAAUACCAGCCGAAAGGCCCUUGGCAGUAGAGCGAAACGUGGAAACACGUCGCUGCGAGCUGUGG; settings: 100 mM KCl, 20 mM MgCl2, 30 mM HEPES pH 7.5, 25°C, 30 min; for binding: 100 μM compound

Structure (SMILES): Cc1ncc(C[n+]2csc(CCO)c2C)c(N)n1
binding ([2]; cleavage fraction 0.235 against 0.403 without ligand): yes

Structure (SMILES): Cc1ncc(C[n+]2csc(CCOP(=O)(O)OP(=O)(O)O)c2C)c(N)n1
apparent K D ([2]; apparent, half-maximal cleavage inhibition): 1200 ± 200 nM
K D [3]: 3000 ± 1100 nM
apparent K D [4]: 2400 ± 1400 nM

Structure (SMILES): Cn1c(=O)[nH]c(=O)c2[nH]cnc21
binding ([5]; cleavage fraction 0.421 against 0.163 without ligand): yes

Structure (SMILES): Cn1c(=O)[nH]c2nc[nH]c2c1=O
binding ([5]; cleavage fraction 0.300 against 0.163 without ligand): weak

Structure (SMILES): Cn1c(=O)c2[nH]cnc2n(C)c1=O
apparent K D ([5]; apparent, half-maximal cleavage induction): 3100 ± 200 nM

More lines, now with the values ahead:

binding [1]: no
Structure (SMILES): CSCC[C@H](N)C(=O)O

binding [1]: no
Structure (SMILES): C[S+](CC[C@H](N)C(=O)O)C[C@H]1O[C@@H](n2cnc3c(N)ncnc32)[C@H](O)[C@@H]1O (stereo partly shown)

binding [1]: no
Structure (SMILES): NC(=O)CC[C@H](N)C(=O)O

binding [1]: no
Structure (SMILES): N[C@@H](CCS)C(=O)O

binding ([2]; cleavage fraction 0.393 against 0.403 without ligand): no
Structure (SMILES): N[C@@H](Cc1cnc[nH]1)C(=O)O

binding [1]: no
Structure (SMILES): Nc1ncnc2c1ncn2[C@@H]1O[C@H](CSCC[C@H](N)C(=O)O)[C@@H](O)[C@H]1O
